Reference: patent US8513271B2, “Pyrimidine compounds as delta opioid receptor modulators” (Janssen Pharmaceutica, NV, priority 2009, dated 2013)
Values joined by “and” are separate entries in the source; they are usually repeats but may differ in a detail not shown here. Equal values may be shown once. Read-outs that look alike come from different tables or passages of the source.

Tests used:
delta opioid receptor [1] = target: T1, delta opioid receptor (Rattus norvegicus, UniProt P33533); experiment: Rat brain delta opioid receptor binding assay; conditions: δ-binding (Naltrindole ligand) Ki, rat forebrain, [3H]naltrindole ligand
T1 construct: the forebrains were homogenized in Tris buffer in a Teflon®-glass homogenizer; from tissue; host or cells: forebrain of male Wistar rats, particulate (membrane) preparation

[2] = tested on: CFA-induced paw radiant heat hypersensitivity; experiment: CFA-induced paw radiant heat hypersensitivity; format: in vivo, rat; conditions: Rattus norvegicus, po
delta opioid receptor [3] = target: T2, delta opioid receptor (Mus musculus, UniProt P32300); experiment: NG108-15, 24-well delta opioid receptor binding assay
T2 construct: NG108-15 cell membranes were purchased from Applied Cell Sciences (Rockville, Md.); host or cells: NG108-15 cell membranes

mu opioid receptor = target: T3, mu opioid receptor (Rattus norvegicus, UniProt P33535); experiment: Rat brain mu opioid receptor binding assay; conditions: rat forebrain, [3H]DAMGO ligand
T3 construct: the forebrains were homogenized in Tris buffer in a Teflon®-glass homogenizer; from tissue; host or cells: forebrain of male Wistar rats, particulate (membrane) preparation

[4] = target: hMOR (mu opioid receptor) (Homo sapiens, UniProt P35372); experiment: [35S]GTPγS binding assays in CHO-hMOR cell membranes (mu opioid functional assay); format: biochemical; conditions: for inhibition at 10 µM: read-out: GTPγS μ-opioid receptor % Inh @10 μM
delta opioid receptor [5] = target: T2, delta opioid receptor; experiment: [35S]GTPγS binding assay in NG108-15 cell membranes (delta opioid functional assay), 200 nM screen; format: biochemical; conditions: NG108-15 cell membranes; for EC50 / GTPγS δ-RelEfficacy @200 nM: averages if tested more than once; for GTPγS δ-opioid receptor Rel Efficacy: relative efficacy from dose response; for GTPγS δ-RelEfficacy @200 nM: 200 nM test compound, relative to calculated max of SNC80 dose response curve
[6] = GTPγS δ-opioid receptor EC50 (μM)
[7] = CHO-hMOR cell membranes, read-out: GTPγS μ-opioid receptor EC50
[8] = read-out: GTPγS δ-opioid receptor EC50
[9] = 1 h, read-out: maximum % reversal @ time (min), rat, 30 mg/kg p.o., 0.5% HPMC, @ 60 min
[10] = 0.5 h, read-out: maximum % reversal @ time (min), rat, 30 mg/kg p.o., 0.5% HPMC, @ 30 min

T3 sequence (P33535 whole entry): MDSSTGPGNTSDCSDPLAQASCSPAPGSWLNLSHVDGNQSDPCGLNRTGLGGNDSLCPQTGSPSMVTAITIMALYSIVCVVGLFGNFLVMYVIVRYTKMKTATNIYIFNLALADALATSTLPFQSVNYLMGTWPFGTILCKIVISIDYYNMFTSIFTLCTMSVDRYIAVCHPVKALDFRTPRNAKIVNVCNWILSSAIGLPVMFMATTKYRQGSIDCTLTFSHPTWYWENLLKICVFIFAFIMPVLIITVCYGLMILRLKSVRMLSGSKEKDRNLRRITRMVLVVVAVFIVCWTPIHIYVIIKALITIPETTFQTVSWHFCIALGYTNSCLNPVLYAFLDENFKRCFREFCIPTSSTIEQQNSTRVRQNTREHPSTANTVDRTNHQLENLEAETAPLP
T1 sequence (P33533 whole entry): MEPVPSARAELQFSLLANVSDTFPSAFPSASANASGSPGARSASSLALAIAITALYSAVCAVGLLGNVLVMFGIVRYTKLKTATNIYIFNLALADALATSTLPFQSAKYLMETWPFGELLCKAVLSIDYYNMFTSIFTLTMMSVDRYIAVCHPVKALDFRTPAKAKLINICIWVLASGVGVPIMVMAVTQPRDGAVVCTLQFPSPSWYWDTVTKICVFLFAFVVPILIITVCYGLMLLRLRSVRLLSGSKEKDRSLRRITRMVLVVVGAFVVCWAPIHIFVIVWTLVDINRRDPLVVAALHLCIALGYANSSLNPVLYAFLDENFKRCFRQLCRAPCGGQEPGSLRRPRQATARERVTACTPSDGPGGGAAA
T2 sequence (P32300 whole entry): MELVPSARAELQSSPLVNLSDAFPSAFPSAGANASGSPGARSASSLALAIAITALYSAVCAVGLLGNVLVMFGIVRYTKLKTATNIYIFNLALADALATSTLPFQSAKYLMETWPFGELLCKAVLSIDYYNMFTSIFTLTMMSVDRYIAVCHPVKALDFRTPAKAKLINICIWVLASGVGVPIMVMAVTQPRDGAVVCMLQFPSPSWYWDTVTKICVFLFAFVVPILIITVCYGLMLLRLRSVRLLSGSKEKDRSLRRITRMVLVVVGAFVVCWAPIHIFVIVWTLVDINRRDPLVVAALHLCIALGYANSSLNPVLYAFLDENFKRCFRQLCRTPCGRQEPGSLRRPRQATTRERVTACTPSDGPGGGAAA
hMOR (mu opioid receptor), sequence (P35372 whole entry, looked up): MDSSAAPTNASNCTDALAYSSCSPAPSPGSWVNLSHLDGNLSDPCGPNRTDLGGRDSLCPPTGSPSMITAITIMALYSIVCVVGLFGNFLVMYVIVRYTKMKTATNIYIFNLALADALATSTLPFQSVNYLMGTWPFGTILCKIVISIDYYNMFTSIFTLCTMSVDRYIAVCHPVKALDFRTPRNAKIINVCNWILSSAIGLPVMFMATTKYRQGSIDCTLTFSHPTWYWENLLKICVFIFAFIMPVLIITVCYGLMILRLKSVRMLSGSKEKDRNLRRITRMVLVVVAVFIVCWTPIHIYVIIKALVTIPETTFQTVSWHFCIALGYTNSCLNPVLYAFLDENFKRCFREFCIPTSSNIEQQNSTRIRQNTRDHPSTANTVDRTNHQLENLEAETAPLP

Row | Structure (SMILES) | inhibition at 10 µM [4] | EC50 (delta opioid receptor [5]; [6]) | GTPγS δ-opioid receptor Rel Efficacy (delta opioid receptor [5]) | other results
1 | COc1ccc(Oc2nc(-c3cncc(F)c3)ncc2NC[C@@H]2CCCN2)cc1 [Cpd 54] |  |  |  | Ki (delta opioid receptor [1]): 0.33 nM; inhibition in vivo at 100 mg/kg ([2]; 1 h, read-out: maximum % reversal @ time (min), rat, 100 mg/kg p.o., 0.5% HPMC, @ 60 min): 17.8%; inhibition in vivo at 100 mg/kg ([2]; 3 h, read-out: maximum % reversal @ time (min), rat, 100 mg/kg p.o., 0.5% HPMC, @ 180 min): 32.7%; Ki (delta opioid receptor [3]): 0.188 nM; Ki (mu opioid receptor; read-out: μ-binding Ki): 217 nM
2 | COc1ccc(Oc2nc(-c3cncc(OC)c3)ncc2NC[C@@H]2CCCN2)cc1 [Cpd 68] | 11.5% | 0.031 µM | 0.912 | Ki (delta opioid receptor [1]): 2 nM; Ki (mu opioid receptor; μ-binding Ki): 465 nM
3 | COc1ccc(Oc2nc(-c3cncc(C#N)c3)ncc2NC[C@@H]2CCCN2)c(F)c1F [Cpd 101] | 16.6% |  |  | EC50 [4, 7]: > 10000 nM; Ki (delta opioid receptor [1]): 7 nM; EC50 (delta opioid receptor [5]; [8]): 0.103 µM; Ki (mu opioid receptor; μ-binding Ki): 58 nM
4 | CCOc1ccc(Oc2nc(-c3cncc(F)c3)ncc2NC[C@@H]2CCCN2)cc1 [Cpd 106] | 17% | 0.027 µM | 1.019 | EC50 [4]: > 10000 nM; Ki (delta opioid receptor [1]): 6 nM; Ki (mu opioid receptor; μ-binding Ki): 42 nM
5 | COc1ccc(Oc2nc(-c3cncc(C#N)c3)ncc2NC[C@@H]2CCCN2)cc1F [Cpd 132] | 9.4% | 0.015 µM | 1.042 | EC50 [4]: 9280 nM; Ki (delta opioid receptor [3]): 0.4 nM; Ki (mu opioid receptor; μ-binding Ki): 61 nM
6 | COc1ccc(Oc2nc(-c3cncc(C#N)c3)ncc2NC[C@@H]2C[C@@H](F)CN2)cc1 [Cpd 134] | 1% | 0.004 µM | 1.087 | EC50 [4]: 2780 nM; Ki (delta opioid receptor [3]): 0.0481 nM; Ki (mu opioid receptor; μ-binding Ki): 27 nM
7 | COc1ccc(Oc2nc(-c3cncc(OC)c3)ncc2NC[C@@H]2C[C@@H](F)CN2)cc1 [Cpd 235] |  | 0.00733 µM | 0.953 | inhibition in vivo at 30 mg/kg [2, 9]: 43.7%; GTPγS δ-RelEfficacy @200 nM (delta opioid receptor [5]): 0.962
8 | COc1ccc(Oc2nc(-c3cncc(C)c3)ncc2NC[C@@H]2C[C@@H](F)CN2)cc1 [Cpd 238] |  | 0.008 µM | 0.966 | inhibition in vivo at 30 mg/kg [2, 9]: 39.5%
9 | COc1ccc(Oc2nc(-c3cncc(C)c3)ncc2NC[C@@H]2CCCN2)cc1 [Cpd 253] |  | 0.0168 µM | 0.997 | inhibition in vivo at 30 mg/kg [2, 9]: 75.9%
10 | COc1ccc(Oc2nc(-c3cccnc3)ncc2N2CCNCC2)cc1 [Cpd 327, 4-(4-Methoxy-phenoxy)-5-piperazin-1-yl-2-pyridin-3-yl-pyrimidine] | 4.26% | 0.0527 µM | 1.037 | ED50 ([2]; 1 h): 14.3 mg/kg; inhibition in vivo at 30 mg/kg [2, 9]: 102%; GTPγS δ-RelEfficacy @200 nM (delta opioid receptor [5]): 0.471
11 | COc1ccc(Oc2nc(-c3cncc(OC)c3)ncc2N2CCCNCC2)cc1 [Cpd 346] |  | 0.047 µM | 1.031 | inhibition in vivo at 30 mg/kg [2, 10]: 37%
12 | COc1ccc(Oc2nc(-c3cncc(SC)c3)ncc2N2CCCNCC2)cc1 [Cpd 347] | -0.404% | 0.069 µM | 0.898 | 
13 | COc1ccc(Oc2nc(-c3cncc(OC)c3)ncc2N2CC[C@@H](N)C2)cc1 [Cpd 349] | 0% | 0.082 µM | 0.929 | 
14 | COc1ccc(Oc2nc(-c3cncc(C)c3)ncc2N2CCNCC2)cc1 [Cpd 351] |  | 0.0249 µM and 0.034 µM | 1.036 and 1.056 | inhibition in vivo at 30 mg/kg [2, 10]: 9.8%
15 | COc1ccc(Oc2nc(-c3cccnc3)ncc2N2CCNC[C@@H]2C)cc1 [Cpd 354] |  | 0.026 µM | 1.050 | inhibition in vivo at 30 mg/kg [2, 9]: 24.7%
16 | COc1ccc(Oc2nc(-c3cccnc3)ncc2N2CCNC(C)(C)C2)cc1 [Cpd 355] |  |  | 1.002 | GTPγS μ-opioid receptor % Inh @10 μM ([4]; 10 μM, CHO-hMOR cell membranes, inhibition of agonist-stimulated GTPγS binding): 0.000%; EC50 [4, 7]: 243 nM; EC50 (delta opioid receptor [5]; [8]): 0.022 µM
17 | COc1ccc(Oc2nc(-c3cccnc3)ncc2N2CCN[C@H](C)C2)cc1 [Cpd 357, 4-(4-Methoxy-phenoxy)-5-[3-(R)-methyl-piperazin-1-yl]-2-pyridin-3-yl-pyrimidine] | 11.5% | 0.005 µM | 0.929 | EC50 [4]: 1830 nM
